{"source": "paper PMC7874389", "about": "(Nature, 2020)", "key": {"[1]": {"system": "larval zebrafish", "assay": "Larval zebrafish behavioral profiling", "assay_type": "in vivo", "conditions": "1–200 μM, 7 dpf, battery of light and acoustic stimuli"}, "[2]": {"system": "C57BL/6J mice", "assay": "Head-twitch response", "conditions": "i.p., 5-MeO-DMT 10 mg/kg, IBG and TBG fumarate salts 10 and 50 mg/kg"}, "[3]": {"system": "mouse primary sensory cortex", "assay": "In vivo spine dynamics, transcranial 2-photon imaging", "conditions": "24 h after treatment; DOI 10 mg/kg, TBG 50 mg/kg i.p."}, "[4]": {"system": "C57/BL6J mice", "assay": "Forced swim test in the absence of UMS", "assay_type": "in vivo, mouse"}, "[5]": {"system": "C57BL/6J mice", "conditions": "cited from earlier work"}, "[6]": {"system": "rodents trained to discriminate DOM from saline", "conditions": "cited from earlier work"}, "[7]": {"system": "larval zebrafish expressing GCaMP5", "assay": "Larval zebrafish seizure experiments", "assay_type": "in vivo", "conditions": "IBO and TBG 50 μM, PTZ 15 mM, 1 h"}}, "data": [{"compound": "O=C(CCCN1CCC(O)(c2ccc(Cl)cc2)CC1)c1ccc(F)cc1", "note": "[haloperidol]", "values": [{"measurement": "behavioral profile versus vehicle and lethal (eugenol) controls", "setting": "[1]", "result": "more closely resembling the lethal control"}]}, {"compound": "COc1ccc2[nH]cc(CCN(C)C)c2c1", "note": "[5-MeO-DMT, 5-methoxy-N,N-dimethyltryptamine]", "values": [{"measurement": "head-twitch response (hallucinogenic potential)", "setting": "[2]", "result": "produces a robust HTR"}]}, {"compound": "O=S1OCC2C(CO1)C1(Cl)C(Cl)=C(Cl)C2(Cl)C1(Cl)Cl", "note": "(centres unmarked) [endosulfan]", "values": [{"measurement": "behavioral profile versus vehicle and lethal (eugenol) controls", "setting": "[1]", "result": "produce behavioral phenotypes more closely resembling a lethal phenotype"}]}, {"compound": "COc1cc(CC(C)N)c(OC)cc1I", "note": "(centres unmarked) [DOI, 2,5-dimethoxy-4-iodoamphetamine]", "values": [{"measurement": "spine elimination", "setting": "[3]", "result": "without impacting spine elimination"}, {"measurement": "spine formation", "setting": "[3]", "result": "increased spine formation"}]}, {"compound": "O=C1NCCN1CCN1CCC(c2cn(-c3ccc(F)cc3)c3ccc(Cl)cc23)CC1", "note": "[sertindole]", "values": [{"measurement": "behavioral profile versus vehicle and lethal (eugenol) controls", "setting": "[1]", "result": "more closely resembling the lethal control"}]}, {"compound": "CC(C)(C)c1ccc(C(O)CCCN2CCC(C(O)(c3ccccc3)c3ccccc3)CC2)cc1", "note": "(centres unmarked) [terfenadine]", "values": [{"measurement": "behavioral profile versus vehicle and lethal (eugenol) controls", "setting": "[1]", "result": "more closely resembling the lethal control"}]}, {"compound": "CNC1(c2ccccc2Cl)CCCCC1=O", "note": "(centres unmarked) [KET, ketamine]", "values": [{"measurement": "FST immobility", "setting": "[4]; 24 h following administration, TBG 50 mg/kg, ketamine 3 mg/kg i.p.", "result": "significantly reduced immobility"}, {"measurement": "durability of FST effect", "setting": "[4]; 7 d post drug administration", "result": "appeared to be more durable"}]}, {"compound": "COc1ccc2c(CCN(C)C)c[nH]c2c1", "note": "[6-MeO-DMT]", "values": [{"measurement": "head-twitch response", "setting": "[5]", "result": "does not produce a head-twitch response"}, {"measurement": "substitution for DOM", "setting": "[6]", "result": "did not substitute for the hallucinogen 2,5-dimethoxy-4-methylamphetamine (DOM) at any dose"}]}, {"compound": "picrotoxin", "values": [{"measurement": "behavioral profile versus vehicle and lethal (eugenol) controls", "setting": "[1]", "result": "produce behavioral phenotypes more closely resembling a lethal phenotype"}]}, {"compound": "C1CCc2nnnn2CC1", "note": "[PTZ, pentylenetetrazole]", "values": [{"measurement": "behavioral profile versus vehicle and lethal (eugenol) controls", "setting": "[1]", "result": "produce behavioral phenotypes more closely resembling a lethal phenotype"}, {"measurement": "seizurogenic potential (neural activity, GCaMP5 fluorescence)", "setting": "[7]", "result": "excessive neural activity"}]}]}
